{
  "source": "patent US6875757B2",
  "about": "“LPA receptor agonists and antagonists and methods of use” (University of Tennessee Research Foundation, priority 2000, dated 2005)",
  "assay_type_in_all_cases": "cell-based",
  "key": {"[1]": {"test_system": "DU-145 prostate cancer cell line", "test": "Cytotoxicity / growth inhibition (SRB), DU145", "settings": "read-out: IC50 ± SEM, DU145", "description": "(§1) Cells were removed from stock flasks using trypsin, centrifuged, resuspended in fresh media, and plated at a density of approximately 2,000 cells/well in 96-well culture plates. Final drug concentrations ranged from 0.05 to either 10 or 50 μM. Control experiments with no drug added (negative control) and 5-fluorouracil added (positive control) were performed in parallel. Media was removed and replaced at 48 hours to minimize the effects of drug degradation during the course of the experiment. After 96 hours drug exposure, cells were fixed by the addition of cold 50% trichloroacetic acid (TCA) and incubation at 4° C. for 1 hour. Fixed cells were stained with sulforhodamine B (SRB), and cell number was determined by comparison of absorbance at 540 nm, as compared to a standard curve of cell number versus absorbance. Experiments were performed in duplicate."}, "[2]": {"test_system": "LNCaP prostate cancer cell line", "test": "Cytotoxicity / growth inhibition (SRB), LNCaP", "settings": "96 hours drug exposure, read-out: IC50 ± SEM, LNCaP", "description": "as §1"}, "HEY ovarian cancer cells [3]": {"test_system": "HEY ovarian cancer cells", "test": "LPA-induced HEY ovarian cancer cell migration (cell motility)", "settings": "compound 1 μM against 0.1 μM LPA", "description": "It is known that two LPA receptors, EDG-2 and EDG-7, are expressed in HEY ovarian cancer cells, so compounds 56, 56a, and 66 were evaluated for their ablity to inhibit LPA-induced cell motility (compound conc: 1 μM against 0.1 μM LPA conc:).\nHEY ovarian cells were maintained in RPMI 1640 medium with 2 mM L-glutamine (GIBCO BRL) supplemented with 10% fetal bovine serum (FBS, Hyclone). All cells were synchronized to the Go/G1 stage by growing them to confluency for 2 days. The cells were replated and harvested for experiments when cells were about 50-60% confluent on the flask. After removal of the cells from the flask, they were exposed for 5 min to 0.53 mM EDTA in PBS at 37° C. EDTA was neutralized with equal volume of RPMI 1640 plus 2 mM L-glutamine and 10% FBS. Cells were centrifuged at 800 rpm for 10 min at room temperature. Harvested cells were washed twice with RPMI 1640 with 2 mM L-glutamine medium and resuspended in the concentration of 1×10^6 cells/ml, and then rested for 1 hr at 37° C.\nA modified quantitative cell migration assay (Cat. # ECM500 from Chemicon, Temecula, Calif.) was used to test cell motility. The Chemicon chamber membrane was coated with fibronectin-containing pores of 8 microns in diameter. A 400 μl RPMI/2 mM L-glutamine containing either no inhibitors or inhibitors (1 μM) were pippetted into the lower chamber. About 5×10^4 cells in RPMI 1640/2 mM L-glutamine were added to the top chamber. The 24-well plates with inserts were incubated for 4 hours in a 5% CO2 incubator at 37° C. At the end of incubation, the chambers were removed to a fresh 24-well plate, and the cells on the inside chamber were removed by a swab several times and placed in the prepared Cell Stain Solution for 30 minutes at room temperature. At the end of incubation, Cell Stain Solution was removed from the wells. The chambers were washed 3 times with 1 mL PBS per well. After the final PBS wash, the chambers were examined to confirm proper cell morphology, and adherent cells were counted using an inverted microscope."}, "PSP24 PLGFR": {"target": "PSP24 PLGFR (Xenopus laevis, UniProt P79945)", "sequence (P79945 whole entry)": "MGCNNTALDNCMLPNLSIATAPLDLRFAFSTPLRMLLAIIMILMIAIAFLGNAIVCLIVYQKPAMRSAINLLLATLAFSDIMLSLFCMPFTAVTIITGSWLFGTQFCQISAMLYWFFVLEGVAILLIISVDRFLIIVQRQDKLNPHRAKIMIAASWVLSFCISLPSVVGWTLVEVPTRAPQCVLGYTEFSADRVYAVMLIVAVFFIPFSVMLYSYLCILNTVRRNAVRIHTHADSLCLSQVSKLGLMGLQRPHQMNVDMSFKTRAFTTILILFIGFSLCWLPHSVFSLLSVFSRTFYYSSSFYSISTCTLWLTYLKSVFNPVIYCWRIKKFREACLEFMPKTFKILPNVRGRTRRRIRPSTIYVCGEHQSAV", "test": "Xenopus oocyte assay: LPA-induced oscillatory chloride currents (two-electrode voltage clamp)", "settings": "for inhibition of LPA-induced chloride currents: Xenopus oocytes, extracellular application", "description": "Xenopus oocytes which endogenously express PSP24 PLGFR were used to screen the newly designed and synthesized compounds for their LPA inhibitory activity.\n(§2) Oocytes were obtained from xylazine-anesthetized adult Xenopus laevis frogs (Carolina Scientific, Burlington, N.C.) under aseptic conditions and prepared for experiment. […] Oocytes were kept in Barth's solution in an incubator between 17-20° C. and were used for 2-7 days after isolation.\n(§3) Electrophysiological recordings were carried out using a standard two-electrode voltage-clamp amplifier holding the membrane potential at −60 mV (GeneClamp 500, Axon Instruments, Calif.). […] Membrane currents were recorded with a NIC-310 digital oscilloscope (Nicolet, Madison, Wis.). Applications were made at intervals of 15 mins (minimum) to allow for the appropriate washout and recovery from desensitization.\nas §2\nas §3, with “CA).” for “Calif.).”"}, "[4]": {"test_system": "PC-3 prostate cancer cell line", "test": "Cytotoxicity / growth inhibition (SRB), PC-3", "settings": "96 hours drug exposure, read-out: IC50 ± SEM, PC-3", "description": "as §1"}, "HEY ovarian cancer cells [5]": {"test_system": "HEY ovarian cancer cells", "test": "Ca2+ responses in HEY ovarian cancer cells", "settings": "100 nM LPA 18:1 mixed with 1 μM lipid", "description": "Likewise, PA 8:0 inhibited the Ca^2+ response to 6% of control, whereas PA 18:1 had no effect. HEY express mRNA transcripts for Edg-1, -2, -5, -7 receptors (FIG. 34C)."}, "human Edg-2": {"target": "T1, human Edg-2 (Homo sapiens, UniProt Q92633)", "T1 construct": "expressed in transfected cells", "T1 sequence (Q92633 whole entry)": "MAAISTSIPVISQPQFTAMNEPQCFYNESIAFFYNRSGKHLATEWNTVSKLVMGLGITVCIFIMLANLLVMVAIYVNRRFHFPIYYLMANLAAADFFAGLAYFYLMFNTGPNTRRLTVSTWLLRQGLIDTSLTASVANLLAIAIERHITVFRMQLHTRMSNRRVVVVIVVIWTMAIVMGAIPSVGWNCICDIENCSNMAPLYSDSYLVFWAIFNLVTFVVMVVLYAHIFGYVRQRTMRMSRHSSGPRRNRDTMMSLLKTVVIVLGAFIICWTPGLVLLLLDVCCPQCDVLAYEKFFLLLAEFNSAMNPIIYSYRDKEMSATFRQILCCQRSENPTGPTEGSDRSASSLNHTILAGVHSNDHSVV", "test": "Ca2+ responses (Fura-2) in RH7777 cells expressing Edg-2", "settings": "250 nM LPA 18:1 mixed with 10 μM lipid", "description": "(§4) RH7777 cells were transfected with the cDNA constructs encoding human Edg-2, Edg-4, or Edg-7 and then were subcloned into the pCDNA3 expression vector using the Cytofectene transfection reagent according to the manufacturers' protocol. Transfected cells were selected in DMEM containing 10% FBS and 1 mg/ml geneticin. Resistant cells were collected and subcloned by limiting dilution. The resulting clones were then screened using functional assays and RT-PCR analysis. Data are representative of three individual clones."}, "NIH3T3 cells": {"test_system": "NIH3T3 cells", "test": "LPA-elicited proliferation of NIH3T3 cells (cell counting)", "settings": "5 μM LPA 18:1 mixed with 10 μM lipid, 24 hr", "description": "Proliferation of NIH3T3 cells was assessed by direct cell counting as previously described (Tigyi et al., 1999). NIH3T3 cells were plated in 24-well plates at a density of 10,000 cells/well, in DMEM containing 10% FBS. The following day, the cells were rinsed and serum starved in DMEM for 6 hr. Lipids were then added for 24 hr. Cell numbers were determined by counting in a Coulter counter (Coulter Electronics, Hialeah, Fla.)."}, "human Edg-7": {"target": "T2, human Edg-7 (Homo sapiens, UniProt Q9UBY5)", "T2 construct": "Flag; expressed in transfected cells", "T2 sequence (Q9UBY5 1-353)": "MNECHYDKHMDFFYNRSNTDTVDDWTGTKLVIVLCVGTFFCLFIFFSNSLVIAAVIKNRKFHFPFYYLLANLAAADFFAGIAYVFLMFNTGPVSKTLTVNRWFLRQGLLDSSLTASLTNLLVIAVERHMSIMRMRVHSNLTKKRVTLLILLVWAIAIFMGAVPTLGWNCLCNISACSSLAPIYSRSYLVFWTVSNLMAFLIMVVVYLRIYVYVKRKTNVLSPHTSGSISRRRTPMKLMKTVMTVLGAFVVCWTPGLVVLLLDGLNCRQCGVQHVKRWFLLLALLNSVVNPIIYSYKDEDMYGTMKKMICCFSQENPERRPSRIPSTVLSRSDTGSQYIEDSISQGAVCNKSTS", "test": "Ca2+ responses (Fura-2) in RH7777 cells expressing Edg-7", "settings": "250 nM LPA 18:1 mixed with 500 nM lipid", "description": "as §4"}, "human Edg-4": {"target": "T3, human Edg-4 (Homo sapiens, UniProt Q9HBW0)", "T3 construct": "expressed in transfected cells", "T3 sequence (Q9HBW0 whole entry)": "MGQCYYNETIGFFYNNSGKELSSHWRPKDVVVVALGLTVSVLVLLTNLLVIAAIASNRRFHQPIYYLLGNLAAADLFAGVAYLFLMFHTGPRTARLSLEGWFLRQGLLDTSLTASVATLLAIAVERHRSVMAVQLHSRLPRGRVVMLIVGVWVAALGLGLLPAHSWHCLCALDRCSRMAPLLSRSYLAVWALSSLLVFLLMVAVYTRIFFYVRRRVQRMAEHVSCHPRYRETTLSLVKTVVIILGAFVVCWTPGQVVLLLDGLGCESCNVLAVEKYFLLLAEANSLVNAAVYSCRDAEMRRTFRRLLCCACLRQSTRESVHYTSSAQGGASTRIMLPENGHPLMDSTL", "test": "Ca2+ responses (Fura-2) in RH7777 cells expressing Edg-4 (stable or transient)", "settings": "stable Edg-4; 500 nM LPA 18:1 mixed with 5 μM lipid", "description": "RH7777 cells, stably expressing human Edg-4, were kindly provided by Dr. Kevin Lynch (University of Virginia, Charlottesville, Va.). Flag-tagged cDNA's encoding human Edg-4 and -7 inserted into the pCDNA3 expression plasmid (Invitrogen, Carlsbad, Calif.), were a generous gift from Dr. Junken Aoki (University of Tokyo, Tokyo, Japan). RH7777 and NIH3T3 cells were obtained from the American Type Culture Collection (Manassas, Va.). HEY cells were provided by Dr. Lisa Jennings (University of Tennessee, Memphis). All cell lines were maintained in Dulbecco's Modified Eagle's Medium (DMEM) containing 10% FBS and 2 mM glutamine. Oocytes were obtained from adult Xenopus laevis frogs as previously described (Tigyi et al., 1999).\nas §4\nRH7777 cells were plated on polylysine-coated glass coverslips (Bellco, Vineland, N.J.) one day prior to transfection. The following day, cells were transfected overnight (16-18 hr) with 1 μg of plasmid DNA mixed with 6 μl of Cytofectene. The cells were then rinsed twice with DMEM and cultured in DMEM containing 10% FBS. The next day, the cells were rinsed with DMEM and serum was withdrawn for a minimum of 2 hr prior to monitoring intracellular Ca^2+."}},
  "note": "Where two headings read alike, the source gives them in different places.",
  "data": [
    {"compound": "2-Amino-3-(nonylamino)-3-oxopropyl dihydrogen phosphate [Compound 55]", "values": [
      {"measurement": "IC50", "setting": "[1]; 96 hours drug exposure", "result": "24.9 ± 4.1", "unit": "µM"},
      {"measurement": "IC50", "setting": "[2]", "result": "4.9 ± 2.6", "unit": "µM"},
      {"measurement": "effect on LPA-induced cell motility", "setting": "HEY ovarian cancer cells [3]", "result": "potentiated the LPA-induced cell motility"},
      {"measurement": "inhibition of LPA-induced response", "setting": "PSP24 PLGFR; compound at 1 μM against 2 nM LPA", "result": 38, "unit": "%"},
      {"measurement": "IC50", "setting": "[4]", "result": "31.6 ± 9", "unit": "µM"}
    ]},
    {"compound": "CCCCCCCCCCCCCCNC(=O)C(COP(=O)(O)O)NC(C)=O", "note": "(centres unmarked) [Compound 56a, 2-(Acetylamino)-3-oxo-3-(tetradecylamino) propyl dihydrogen phosphate]", "values": [
      {"measurement": "IC50", "setting": "[1]; 96 hours drug exposure", "result": "0.7 ± 0.1", "unit": "µM"},
      {"measurement": "IC50", "setting": "[2]", "result": "30.3 ± 7.9", "unit": "µM"},
      {"measurement": "effect on LPA-induced cell motility", "setting": "HEY ovarian cancer cells [3]", "result": "potentiated the LPA-induced cell motility"},
      {"measurement": "effect on LPA response when applied in combination with LPA", "setting": "PSP24 PLGFR; applied in combination with LPA", "result": "enhanced the LPA response"},
      {"measurement": "response elicited by compound alone at 2 μM", "setting": "PSP24 PLGFR; compound alone, 2 μM", "result": "did not elicit a response"},
      {"measurement": "response elicited by compound alone at 10 μM", "setting": "PSP24 PLGFR; compound alone, 10 μM", "result": "able to elicit a response on its own"}
    ]},
    {"compound": "CCCCCCCCCCCCCCCCCCOCC(COP(=O)(O)O)OP(=O)(O)O", "note": "(centres unmarked) [Compound 66, 1,2-(3-Octadecyloxypropane)-bis(dihydrogen phosphate)]", "values": [
      {"measurement": "IC50", "setting": "[1]; Homo sapiens, DU-145, 96 hours drug exposure", "result": "> 10", "unit": "µM"},
      {"measurement": "IC50", "setting": "[2]; Homo sapiens, LNCaP", "result": "3.1 ± 3.2", "unit": "µM"},
      {"measurement": "inhibition at 1 µM", "setting": "HEY ovarian cancer cells [3]", "result": "~70", "unit": "%"},
      {"measurement": "effect on LPA response after intracellular microinjection", "setting": "PSP24 PLGFR; 5 μM microinjected inside the cell, then extracellular LPA (10 nM)", "result": "failed to inhibit the LPA response"},
      {"measurement": "inhibition of LPA-induced chloride currents", "setting": "PSP24 PLGFR", "result": "inhibitors of LPA-induced chloride current"},
      {"measurement": "reversibility of inhibition of LPA-induced chloride currents", "setting": "PSP24 PLGFR; after washing the oocyte", "result": "reversible"},
      {"measurement": "effect on the LPA response at 5 μM", "setting": "PSP24 PLGFR; compound at 5 μM", "result": "completely abolished the effect of LPA"},
      {"measurement": "IC50", "setting": "[4]", "result": "> 10", "unit": "µM"}
    ]},
    {"compound": "CCCCCCCC(=O)OC[C@H](COP(=O)(O)OP(=O)(O)O)OC(=O)CCCCCCC", "note": "[DGPP 18:1, diacylglycerol pyrophosphate]", "values": [
      {"measurement": "effect on LPA-elicited Ca2+ response", "setting": "HEY ovarian cancer cells [5]", "result": "had no effect"},
      {"measurement": "inhibitory effect on LPA-elicited Ca2+ response", "setting": "human Edg-2", "result": "no longer had an inhibitory effect"},
      {"measurement": "effect on LPA-induced proliferation", "setting": "NIH3T3 cells", "result": "Neither DGPP 18:1, nor long- and short-chain PA and DAG had an effect"},
      {"measurement": "effect on LPA-elicited Ca2+ responses", "setting": "human Edg-7", "result": "no longer inhibitors of Edg-7"}
    ]},
    {"compound": "Phosphatidic acid [PA 8:0]", "values": [
      {"measurement": "Ca2+ responses, % of control", "setting": "human Edg-4", "result": "162 % of control"},
      {"measurement": "inhibition of LPA-induced chloride currents", "setting": "PSP24 PLGFR", "result": "effective at inhibiting the LPA-elicited responses"},
      {"measurement": "LPA-elicited Ca2+ response, % of control", "setting": "HEY ovarian cancer cells [5]", "result": "6 % of control"},
      {"measurement": "Ca2+ response, % of control", "setting": "human Edg-2", "result": "19 % of control"},
      {"measurement": "effect on LPA-induced proliferation", "setting": "NIH3T3 cells", "result": "had no significant inhibition"},
      {"measurement": "inhibition of the Ca2+ responses", "setting": "human Edg-7", "result": 56, "unit": "%"}
    ]}
  ]
}
